Experimental data published in patent publication US5391540A, “Substituted pyridine compounds” (Rohm and Haas Company, priority 1993, dated 1995).

Tests used:
Assay type in all cases: in vivo
[1] = test system: Barnyardgrass; assay: Pre-emergent herbicidal activity (Table A); details: Echinochloa crus-galli, pre-emergence, Bygr, 11.2 kg/ha, 10-14 days, read-out: herbicidal rating (% inhibition)
Procedure, shortened: (§1)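 Percent inhibition per species, scored on a rating scale, after pre-emergent soil incorporation: test compound in acetone or water carrier mixed into cover soil, layered over seeded topsoil or vegetative propagules.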

[2] = test system: Cocklebur; assay: Pre-emergent herbicidal activity (Table A); details: Xanthium strumarium, pre-emergence, Cobu, 11.2 kg/ha, 10-14 days, read-out: herbicidal rating (% inhibition)
Procedure, shortened: as §1

[3] = test system: Downy Brome; assay: Pre-emergent herbicidal activity (Table A); details: Bromus tectorum, pre-emergence, Dobr, 11.2 kg/ha, 10-14 days, read-out: herbicidal rating (% inhibition)
Procedure, shortened: as §1

[4] = test system: Morningglory; assay: Pre-emergent herbicidal activity (Table A); details: Ipomoea, pre-emergence, Mogl, 11.2 kg/ha, 10-14 days, read-out: herbicidal rating (% inhibition)
Procedure, shortened: as §1

[5] = test system: Yellow Nutsedge; assay: Pre-emergent herbicidal activity (Table A); details: Cyperus, pre-emergence, Yens, 11.2 kg/ha, 10-14 days, read-out: herbicidal rating (% inhibition)
Procedure, shortened: as §1

[6] = test system: Velvetleaf; assay: Pre-emergent herbicidal activity (Table A); details: Abutilon theophrasti, pre-emergence, Vele, 11.2 kg/ha, 10-14 days, read-out: herbicidal rating (% inhibition)
Procedure, shortened: as §1

[7] = test system: Cobu; assay: plant injury after spraying emerged plants (Table D); parameters: scale not given here
Procedure, shortened: (§2)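 Injury to emerged plants was assessed after spraying. Plants came from seeds or propagules sown into sterilized, sieved silt-loam topsoil under a 1.27 cm layer of 50% topsoil with peat moss, vermiculite and wetting agent, then kept on greenhouse capillary mats with subirrigation.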

[8] = test system: Bygr; assay: as above; parameters: scale not given here
Procedure, shortened: as §2

[9] = test system: Lacg; assay: as above; parameters: scale not given here
Procedure, shortened: as §2

[10] = test system: Corn; assay: as above; parameters: scale not given here
Procedure, shortened: as §2

[11] = test system: Rice; assay: as above; parameters: scale not given here
Procedure, shortened: as §2

[12] = test system: Prmi; assay: as above; parameters: scale not given here
Procedure, shortened: as §2

[13] = test system: Grft; assay: as above; parameters: scale not given here
Procedure, shortened: as §2

[14] = test system: Whez; assay: as above; parameters: scale not given here
Procedure, shortened: as §2

[15] = test system: Sobe; assay: as above; parameters: scale not given here
Procedure, shortened: as §2

[16] = test system: Dobr; assay: as above

SMILES | inhibition at 11200 g/ha [1] [%] | inhibition at 11200 g/ha [2] [%] | inhibition at 11200 g/ha [3] [%] | inhibition at 11200 g/ha [4] [%] | inhibition at 11200 g/ha [5] [%] | inhibition at 11200 g/ha [6] [%] | plant injury rating, Cobu ([7]; 0.2803 kg/ha) | plant injury rating, Cobu ([7]; 1.1210 kg/ha) | plant injury rating, Cobu ([7]; 5.6050 kg/ha) | plant injury rating, Bygr ([8]; 0.2803 kg/ha) | plant injury rating, Bygr ([8]; 1.1210 kg/ha) | plant injury rating, Bygr ([8]; 5.6050 kg/ha) | plant injury rating, Lacg ([9]; 0.2803 kg/ha) | plant injury rating, Lacg ([9]; 1.1210 kg/ha) | plant injury rating, Lacg ([9]; 5.6050 kg/ha) | plant injury rating, Corn ([10]; 0.2803 kg/ha) | plant injury rating, Corn ([10]; 1.1210 kg/ha) | plant injury rating, Corn ([10]; 5.6050 kg/ha) | plant injury rating, Rice ([11]; 0.2803 kg/ha) | plant injury rating, Rice ([11]; 1.1210 kg/ha) | other results
COC(=O)c1c(OC)nc(C(F)(F)F)c(C(=O)Cl)c1CC1CC1 [Compound 113, 3-pyridinecarboxylic acid, 5-(chlorocarbonyl)-4-(cyclopropylmethyl)-2-methoxy-6-(trifluoromethyl)-, methyl ester] | 75 to 100 | 0 to 24 | 75 to 100 | 25 to 49 | 0 to 24 | 25 to 49 | 0 | 0 | 0 | 0 | 0 | 0 | 0 | 0 | 2 | 0 | 0 | 0 | 0 | 0 | plant injury rating, Rice ([11]; 5.6050 kg/ha): 0; plant injury rating, Prmi ([12]; 0.2803 kg/ha): 0; plant injury rating, Prmi ([12]; 1.1210 kg/ha): 0; plant injury rating, Prmi ([12]; 5.6050 kg/ha): 0; plant injury rating, Grft ([13]; 0.2803 kg/ha): 0; plant injury rating, Grft ([13]; 1.1210 kg/ha): 0; plant injury rating, Grft ([13]; 5.6050 kg/ha): 0; plant injury rating, Whez ([14]; 0.2803 kg/ha): 0; plant injury rating, Whez ([14]; 1.1210 kg/ha): 0; plant injury rating, Whez ([14]; 5.6050 kg/ha): 0; plant injury rating, Sobe ([15]; 0.2803 kg/ha): 0; plant injury rating, Sobe ([15]; 1.1210 kg/ha): 0; plant injury rating, Sobe ([15]; 5.6050 kg/ha): 1; plant injury rating, Dobr ([16]; 0.2803 kg/ha): 0; plant injury rating, Dobr ([16]; 1.1210 kg/ha): 0; plant injury rating, Dobr ([16]; 5.6050 kg/ha): 0
COC(=O)c1c(OC)nc(C(F)(F)F)c(C(=O)SC)c1C1CCC1 [Compound 137, 3-pyridinecarboxylic acid, 4-cyclobuty1-2-methoxy-5-[(methylthio)carbonyl]-6-(trifluoromethyl)-, methyl ester] | 75 to 100 | 75 to 100 | 75 to 100 | 75 to 100 | 75 to 100 | 75 to 100 | 0 | 1 | 3 | 1 | 2 | 2 | 3 | 3 | 3 | 0 | 0 | 1 | 0 | 1 | plant injury rating, Rice ([11]; 5.6050 kg/ha): 1; plant injury rating, Prmi ([12]; 0.2803 kg/ha): 0; plant injury rating, Prmi ([12]; 1.1210 kg/ha): 0; plant injury rating, Prmi ([12]; 5.6050 kg/ha): 1; plant injury rating, Grft ([13]; 0.2803 kg/ha): 2; plant injury rating, Grft ([13]; 1.1210 kg/ha): 2; plant injury rating, Grft ([13]; 5.6050 kg/ha): 2; plant injury rating, Whez ([14]; 0.2803 kg/ha): 0; plant injury rating, Whez ([14]; 1.1210 kg/ha): 0; plant injury rating, Whez ([14]; 5.6050 kg/ha): 0; plant injury rating, Sobe ([15]; 0.2803 kg/ha): 0; plant injury rating, Sobe ([15]; 1.1210 kg/ha): 2; plant injury rating, Sobe ([15]; 5.6050 kg/ha): 2; plant injury rating, Dobr ([16]; 0.2803 kg/ha): 0; plant injury rating, Dobr ([16]; 1.1210 kg/ha): 1; plant injury rating, Dobr ([16]; 5.6050 kg/ha): 1
